In patent US6627652B1, “Method of treatment with compounds having selective agonist-like activity on RXR retinoid receptors” (Allergan, Inc., priority 1993, dated 2003):
≈ marks a conversion by molar mass, not a printed value. Entries after “also recorded” stand apart in the source; their conditions may differ. Like-named read-outs stand apart in the source and are kept apart here. One block for each compound: values may come before it.

What was measured:
chimeric RXRα receptor = target: T1, chimeric RXRα receptor (Homo sapiens, UniProt P19793); assay: Cationic Liposome Mediated Transfection Assay (ERE-CAT reporter in HeLa cells), RXRα; type: cell-based; details: concentration giving 50% of maximum CAT activity of reference AGN 191440
T1 construct: expressed in transfected cells; host or cells: HeLa cells
T1 sequence (P19793 227-458 limits assumed): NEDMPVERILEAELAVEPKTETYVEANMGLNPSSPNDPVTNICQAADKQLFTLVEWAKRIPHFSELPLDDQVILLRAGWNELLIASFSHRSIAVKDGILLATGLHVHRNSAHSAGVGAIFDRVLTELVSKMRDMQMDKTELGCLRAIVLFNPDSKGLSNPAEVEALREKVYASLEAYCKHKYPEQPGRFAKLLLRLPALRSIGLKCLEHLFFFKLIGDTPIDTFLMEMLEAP

chimeric RARα receptor = target: T2, chimeric RARα receptor (Homo sapiens, UniProt P10276); assay: Cationic Liposome Mediated Transfection Assay (ERE-CAT reporter in HeLa cells), RARα
T2 sequence (P10276 183-417 limits assumed): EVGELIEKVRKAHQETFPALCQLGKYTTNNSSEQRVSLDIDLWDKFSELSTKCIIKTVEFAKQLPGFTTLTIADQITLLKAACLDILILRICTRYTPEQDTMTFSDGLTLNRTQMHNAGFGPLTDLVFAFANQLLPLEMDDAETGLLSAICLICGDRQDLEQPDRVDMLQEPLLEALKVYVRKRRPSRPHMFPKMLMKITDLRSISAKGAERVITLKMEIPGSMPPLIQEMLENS

chimeric RARγ receptor = target: T3, chimeric RARγ receptor (Homo sapiens, UniProt P13631); assay: Cationic Liposome Mediated Transfection Assay (ERE-CAT reporter in HeLa cells), RARγ
T3 sequence (P13631 185-419 limits assumed): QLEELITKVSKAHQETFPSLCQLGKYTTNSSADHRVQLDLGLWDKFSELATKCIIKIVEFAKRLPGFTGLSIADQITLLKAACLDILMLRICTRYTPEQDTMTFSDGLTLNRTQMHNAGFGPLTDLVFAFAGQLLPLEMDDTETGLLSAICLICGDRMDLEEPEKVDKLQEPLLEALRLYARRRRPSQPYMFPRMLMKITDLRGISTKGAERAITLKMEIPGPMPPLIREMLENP

chimeric RARβ receptor = target: T4, chimeric RARβ receptor (Homo sapiens, UniProt P10826); assay: Cationic Liposome Mediated Transfection Assay (ERE-CAT reporter in HeLa cells), RARβ
T4 sequence (P10826 183-417 limits assumed): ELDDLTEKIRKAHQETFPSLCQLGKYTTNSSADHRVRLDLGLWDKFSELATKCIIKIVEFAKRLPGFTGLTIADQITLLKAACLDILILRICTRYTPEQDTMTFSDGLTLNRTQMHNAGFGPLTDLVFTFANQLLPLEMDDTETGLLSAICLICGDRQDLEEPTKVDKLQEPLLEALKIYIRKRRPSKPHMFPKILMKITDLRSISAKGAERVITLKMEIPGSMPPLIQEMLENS

[1] = tested on: limb bud mesenchymal cells; assay: inhibition of chondrogenesis in high-density spot cultures of limb bud mesenchymal cells; type: cell-based, mouse; details: for IC50: Mus musculus
Method: An in vitro bioassay which measures inhibition of chondrogenesis (bone formation) in chick embryo cells is considered a classic measure of teratogenecity. The assay is conducted as follows: High-density “spot” cultures of limb bud mesenchymal cells were used to compare the ability of various concentrations of test drugs to suppress chondrogenic differentiation as a bioassay. Forelimb buds of mouse embryos on day 12 of gestation (54±2 somites) were dissociated in a trypsin-EDTA solution, and the resultant single-cell suspension was plated as 20-μl spots (200,000 cells/spot) on plastic culture dishes. Retinoid concentrations ranging from 0.3 ng/ml to 3 μg/ml (1 nM-10 μM) were added to the culture medium (Eagle's MEM+10% fetal bovine serum, GIBCO) 24 hours after initial plating. Control cultures received only the vehicle (ethanol, concentration≦1% by vol); Retinoic acid was used as a positive control in another set of cultures. The cultures were terminated 96 hours after plating, at which time the medium was removed and the cells were fixed for 1 hour in 10% formalin containing 0.5% cetylpyridinium chloride. The cultures were rinsed in acetic acid and stained for 1 hour in 0.5% Alcian blue solution at pH 1.0, differentiated in 3% acetic acid, and then dehydrated in ethanol and scored for chondrogenesis under the microscope. An absence or reduction in the number of cartilage nodules in stained cultures as compared with control cultures was taken as a measure of suppression of chondrogenesis. The number of cartilage nodules stained in the whole spot, mean number of nodules, and standard deviations were calculated for four replicate cultures per treatment. The median concentration causing a 50% inhibition of chondrogenesis compared with controls (IC50) was calculated by logarithmic curve fitting of the dose-response data.

gestating ICR mice = assay: in vivo teratology study in gestating ICR mice; set-up: species or system mouse; details: for teratogenicity (in words): conclusion from Table 2
Method: The methodology of the study is described as follows: ICR mice (Ace Animals, Boyertown, Pa.) were used. Mature male and virgin female ICR mice were housed in environmentally controlled rooms and acclimatized to a 12 hour light/dark cycle (light cycle 6 A.M. to 6 P.M.) for 2 weeks prior to use. All animals were maintained on Purina Lab Chow and tap water ad libitum. A group of 3-4 females was caged with a single male of proven fertility for 4 hours. Presence of a vaginal plug immediately afterward was regarded as evidence of successful mating, and this day was designated as day 0 of gestation. […] All animals were killed by cervical dislocation under mild ether anesthesia on day 17 of gestation. Upon laparotomy, the fetuses were examined for external malformations and weighed; one-half of each litter was then fixed in 95% ethanol and processed for staining of the skeleton by the rapid, alizarin red-S dye method. These preparations were examined under a dissection microscope to screen for abnormalities in the axial and the appendicular skeleton. The other half of each litter was fixed in Bouin's solution and examined by freehand razor serial sectioning to screen for anomalies of the brain, face, and palate. Differences in dose-related incidence of malformations and resorptions were assessed by computing percentages of affected conceptuses among total implantation sites. The groups were compared statistically by a method based on Student's t-tests of arcs in square root transformed percentages. Values at 0.05 probability level were considered significant. The median effective dose was calculated by logarithmic curve fitting of the dose-response data.

[2] = pharmacokinetic study, concentration in maternal plasma and embryo of mice; type: in vivo; details: oral intubation, single dose of 10 mg/kg, FIG. 8
Method: FIG. 8 is a graph showing the concentration of compound AGN 191701 (Compound 1) in nanograms per ml, or nanograms per gram as indicated on the chart, in the plasma and embryo of mice at various times after oral intubation of a single dose of 10 mg/kg of the compound.

human sebocyte cultures = assay: 3H-thymidine incorporation assay in human sebocyte cultures; type: cell-based; details: FIG. 3, 8 days of treatment
Method: An assay involving human sebocyte cultures measures the inhibition of ^3H-thymidine into cells, and thus measures inhibition of DNA synthesis and thus an anti-proliferative effect on sebocyte (i.e. a sebostatic effect). This assay is also considered a specific assay for effectiveness of a compound as a potential anti-acne drug. The test is conducted as follows. Face-lift or forehead reduction skins from cosmetic surgeries were used as sources of human sebaceous gland cells (sebocytes). Isolated sebocytes were plated in type 1 collagen coated-dishes in DMEM/F12 (1:1) medium supplemented with 8% fetal bovine serum, 2% human serum, 10 ng/ml epidermal growth factor, 1 nM cholera toxin, 1 μM hydrocortisone, and penicillin/streptomycin/amphotericin B. Secondary cultures were prepared by plating Dispase dissociated cells in collagen coated 24-well plates. […] DNA from the cells were extracted by thichoroacetic acid and perchloric acid, and assayed for radioactivity by scintillation counting and for content of DNA by the diphenylamine colorimetric method. The results were expressed as CPM/μg DNA, or as per cent of vehicle control which incorporated about 1,000-1,500 cpm/μg DNA.

[3] = Table 3, cultures terminated 96 hours after plating, read-out: IC50, 50% inhibition of chondrogenesis
[4] = single oral dose 1 mg/kg on day 11 of gestation
[5] = single oral dose 10 mg/kg on day 11 of gestation
[6] = single oral dose 100 mg/kg on day 11 of gestation
[7] = single oral dose 0.01 mg/kg on day 11 of gestation
[8] = single oral dose 0.1 mg/kg on day 11 of gestation

EC50 (chimeric RXRα receptor): 1060 nM
Structure (SMILES): C/C(=C\C=C\c1occc1C(=O)O)c1cc2c(cc1C)C(C)(C)CCC2(C)C [Compound 2]

EC50 (chimeric RARα receptor): > 10000 nM
EC50 (chimeric RXRα receptor): 516 nM
EC50 (chimeric RARγ receptor): > 10000 nM
EC50 (chimeric RARβ receptor): > 10000 nM
Structure (SMILES): C/C(=C\c1ccc(C(=O)O)o1)c1cc2c(cc1C)C(C)(C)CCC2(C)C [Compound 4]

EC50 (chimeric RXRα receptor): 139 nM
Structure (SMILES): C/C(=C\C=C\C1C[C@H]1C(=O)O)c1cc2c(cc1C)C(C)(C)CCC2(C)C (stereo partly drawn) [Compound 5, Cis-[2-[4-Methyl-4-(3,5,5,8,8,-pentamethyl-5,6,7,8-tetrahydronapthalen)-2-yl]-1E,3E-butadien-1-yl] 1-Cyclopropane Carboxylic Acid]

EC50 (chimeric RXRα receptor): 1310 nM
Structure (SMILES): C/C(=C/C=C/c1occc1C(=O)O)c1cc2c(cc1C)C(C)(C)CCC2(C)C [Compound 3]

EC50 (chimeric RXRα receptor): 67 nM
EC50 (chimeric RARγ receptor): 1070 nM
IC50 [1, 3]: 19 µg/mL (≈ 51.6 µM)
IC50 ([1]; text b179, read-out: IC50, inhibition of chondrogenesis): 19 µg/mL (≈ 51.6 µM)
EC50 (chimeric RARβ receptor): 3350 nM
Structure (SMILES): C/C(=C\c1cc(C(=O)O)cs1)c1cc2c(cc1C)C(C)(C)CCC2(C)C [Compound 1, 2-[(E)-2-(5,6,7,8-Tetrahydro-3,5,5,8,8-pentamethylnaphthalen-2-yl)propen-1-yl]thiophene-4-carboxylic Acid]
times less teratogenic than Compound 7 in the chondrogenesis assay ([1]; ratio of IC50 values, versus Compound 7): approximately 6.3×10^4 times
teratogenicity (in words) (gestating ICR mice; listed as AGN 191701): practically not teratogenic; also recorded: very little teratogenic effect
# Litters Normal (gestating ICR mice; [4]): 1
% Cleft Palate (gestating ICR mice; [4]): 0%
% Limb Defects (gestating ICR mice; [4]): 0%
% Resorbed (gestating ICR mice; [4]): 18%
# Litters Normal (gestating ICR mice; [5]): 3
% Cleft Palate (gestating ICR mice; [5]): 0%
% Limb Defects (gestating ICR mice; [5]): 0%
% Resorbed (gestating ICR mice; [5]): 14%
# Litters Normal (gestating ICR mice; [6]): 2
% Cleft Palate (gestating ICR mice; [6]): 19%
% Limb Defects (gestating ICR mice; [6]): 22%
% Resorbed (gestating ICR mice; [6]): 2%
presence in maternal plasma and embryo (in words) [2]: present in substantial concentration in the maternal plasma and in the embryo
inhibition of 3H-thymidine incorporation in sebocytes (in words) (human sebocyte cultures): effective retinoid

EC50 (chimeric RXRα receptor): > 10000 nM
IC50 [1, 3]: 0.003 µg/mL (≈ 0.00861 µM)
IC50 ([1]; text b179, read-out: IC50, inhibition of chondrogenesis (unit inferred)): 0.003 µg/mL (≈ 0.00861 µM)
Structure (SMILES): C/C(=C\c1ccc(C(=O)O)cc1)c1ccc2c(c1)C(C)(C)CCC2(C)C [Compound 7, reference compound]
teratogenicity (in words) (gestating ICR mice): much more teratogenic than Compound 1
# Litters Normal (gestating ICR mice; [7]): 2
% Cleft Palate (gestating ICR mice; [7]): 29%
% Limb Defects (gestating ICR mice; [7]): 20%
% Resorbed (gestating ICR mice; [7]): 3%
# Litters Normal (gestating ICR mice; [8]): 0
% Cleft Palate (gestating ICR mice; [8]): 100%
% Limb Defects (gestating ICR mice; [8]): 100%
% Resorbed (gestating ICR mice; [8]): 30%
# Litters Normal (gestating ICR mice; [4]): 0
% Resorbed (gestating ICR mice; [4]): 100%
# Litters Normal (gestating ICR mice; [5]): 0
% Resorbed (gestating ICR mice; [5]): 100%
